Assay results as given in ChEMBL document CHEMBL5316343, “Design, Synthesis, and Biological Evaluation of a Potent Dual EZH2-BRD4 Inhibitor for the Treatment of Some Solid Tumors” (J Med Chem, 2023).
Calls of active or inactive are those of the source. The rule behind the calls is not given here.

Legend:
MDA-MB-231 [1] = experiment: Induction of apoptosis in human MDA-MB-231 cells assessed as early apoptotic cells at 5 uM incubated for 48 hrs by Annexin V-FITC/PI staining based flow cytometric analysis (reference value: 0.69%); type: functional
MDA-MB-231 [2] = experiment: Induction of apoptosis in human MDA-MB-231 cells assessed as early apoptotic cells at 2.5 uM incubated for 48 hrs by Annexin V-FITC/PI staining based flow cytometric analysis (reference value: 0.69%); type: functional
MDA-MB-231 [3] = experiment: Induction of apoptosis in human MDA-MB-231 cells assessed as viable cells at 1 uM incubated for 48 hrs by Annexin V-FITC/PI staining based flow cytometric analysis (reference value: 97.63%); type: functional; settings: read-out: Activity
[4] = Half-life in ICR mouse at 60 mg/kg, ip measured upto 24 hrs by LC-MS/MS analysis; type: ADME, organism-based; settings: in vivo
[5] = molecular target: Histone-lysine N-methyltransferase EZH2 (Homo sapiens, UniProt Q15910); experiment: Inhibition of EZH2 in human BX-PC-3 cells assessed as decrease in H3K27me3 level at 5 uM by fluorescence based analysis; type: cell-based; settings: BXPC-3
Sequence of Histone-lysine N-methyltransferase EZH2 (Q15910 whole entry, looked up): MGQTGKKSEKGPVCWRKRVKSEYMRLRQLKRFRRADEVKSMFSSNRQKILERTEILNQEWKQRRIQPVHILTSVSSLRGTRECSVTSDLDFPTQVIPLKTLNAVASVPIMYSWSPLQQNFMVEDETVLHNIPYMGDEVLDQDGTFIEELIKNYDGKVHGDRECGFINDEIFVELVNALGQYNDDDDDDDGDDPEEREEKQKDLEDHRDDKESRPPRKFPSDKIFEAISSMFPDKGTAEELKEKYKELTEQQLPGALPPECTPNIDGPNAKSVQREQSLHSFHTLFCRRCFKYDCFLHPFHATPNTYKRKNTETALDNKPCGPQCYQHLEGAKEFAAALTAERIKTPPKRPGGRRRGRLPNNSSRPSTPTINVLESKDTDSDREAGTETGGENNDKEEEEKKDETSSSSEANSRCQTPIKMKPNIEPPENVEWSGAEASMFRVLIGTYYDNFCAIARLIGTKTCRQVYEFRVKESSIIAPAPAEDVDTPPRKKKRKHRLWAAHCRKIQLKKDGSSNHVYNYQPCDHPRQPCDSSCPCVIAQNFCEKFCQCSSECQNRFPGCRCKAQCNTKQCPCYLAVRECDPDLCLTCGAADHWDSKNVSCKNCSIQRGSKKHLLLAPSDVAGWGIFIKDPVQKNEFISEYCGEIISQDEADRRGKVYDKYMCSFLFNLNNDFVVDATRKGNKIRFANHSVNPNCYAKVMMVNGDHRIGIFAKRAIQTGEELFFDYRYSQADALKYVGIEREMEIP

BXPC-3 [6] = experiment: Induction of apoptosis in human BXPC-3 cells assessed as necrotic cells at 1 uM incubated for 48 hrs by Annexin V-FITC/PI staining based flow cytometric analysis (reference value: 1.65 %); type: functional
MDA-MB-231 [7] = experiment: Induction of cell cycle arrest in human MDA-MB-231 cells assessed as accumulation of cells at G0/G1 phase at 1 to 5 uM incubated for 48 hrs by flow cytometric analysis; type: functional, cell-based; settings: dose 1-5 µM
BXPC-3 [8] = experiment: Induction of apoptosis in human BXPC-3 cells assessed as late apoptotic cells at 1 uM incubated for 48 hrs by Annexin V-FITC/PI staining based flow cytometric analysis (reference value: 4.38 %); type: functional
BXPC-3 [9] = experiment: Induction of apoptosis in human BXPC-3 cells assessed as late apoptotic cells at 2.5 uM incubated for 48 hrs by Annexin V-FITC/PI staining based flow cytometric analysis (reference value: 4.38 %); type: functional
BXPC-3 [10] = experiment: Induction of apoptosis in human BXPC-3 cells assessed as viable cells at 1 uM incubated for 48 hrs by Annexin V-FITC/PI staining based flow cytometric analysis (reference value: 90.70%); type: functional; settings: read-out: Activity
MDA-MB-231 [11] = experiment: Induction of apoptosis in human MDA-MB-231 cells assessed as late apoptotic cells at 1 uM incubated for 48 hrs by Annexin V-FITC/PI staining based flow cytometric analysis (reference value: 1.06%); type: functional
BXPC-3 [12] = experiment: Induction of apoptosis in human BXPC-3 cells assessed as viable cells at 2.5 uM incubated for 48 hrs by Annexin V-FITC/PI staining based flow cytometric analysis (reference value: 90.70%); type: functional; settings: read-out: Activity
MDA-MB-231 [13] = experiment: Inhibition of cell proliferation in human MDA-MB-231 cells assessed as decrease in c-Myc protein level at 5 uM incubated for 48 hrs by IHC analysis; type: functional, cell-based
[14] = molecular target: T1, Histone-lysine N-methyltransferase EZH1 (Homo sapiens, UniProt Q92800); experiment: Inhibition of EZH1 (unknown origin) by radiometric assay
T1 sequence (Q92800 whole entry): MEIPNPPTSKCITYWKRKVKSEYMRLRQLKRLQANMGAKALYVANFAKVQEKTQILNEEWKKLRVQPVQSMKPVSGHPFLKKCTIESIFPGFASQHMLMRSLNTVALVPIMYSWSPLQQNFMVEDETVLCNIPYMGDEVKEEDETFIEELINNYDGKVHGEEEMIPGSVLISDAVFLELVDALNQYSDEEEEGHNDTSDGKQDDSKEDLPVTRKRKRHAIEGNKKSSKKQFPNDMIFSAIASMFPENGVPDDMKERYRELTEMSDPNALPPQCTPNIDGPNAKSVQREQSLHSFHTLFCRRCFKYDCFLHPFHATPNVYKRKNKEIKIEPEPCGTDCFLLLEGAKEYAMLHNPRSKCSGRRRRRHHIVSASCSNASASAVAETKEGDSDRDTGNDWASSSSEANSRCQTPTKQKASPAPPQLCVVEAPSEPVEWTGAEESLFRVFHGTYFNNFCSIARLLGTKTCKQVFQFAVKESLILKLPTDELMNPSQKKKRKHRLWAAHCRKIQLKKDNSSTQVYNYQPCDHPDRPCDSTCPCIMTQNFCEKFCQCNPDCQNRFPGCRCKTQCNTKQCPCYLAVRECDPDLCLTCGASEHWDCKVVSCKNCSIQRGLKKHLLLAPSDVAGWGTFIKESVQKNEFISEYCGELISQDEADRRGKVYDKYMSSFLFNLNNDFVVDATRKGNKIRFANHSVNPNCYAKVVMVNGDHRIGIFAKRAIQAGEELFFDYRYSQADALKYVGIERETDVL

[15] = Protein binding in mouse plasma assessed as bound fraction at 2 uM incubated for 5 hrs by equilibrium based LC-MS/MS analysis; type: ADME, cell-free; settings: read-out: PPB (converted)
PLC-PRF-5 = experiment: Antiproliferative activity against human PLC-PRF-5 cells assessed as inhibition of cell proliferation incubated for 6 days by CCK8 assay; type: functional, cell-based; settings: time 6.0 day
BXPC-3 [16] = experiment: Induction of apoptosis in human BXPC-3 cells assessed as early apoptotic cells at 5 uM incubated for 48 hrs by Annexin V-FITC/PI staining based flow cytometric analysis (reference value: 3.28 %); type: functional
BXPC-3 [17] = experiment: Antiproliferative activity against human BXPC-3 cells assessed as inhibition of cell proliferation incubated for 6 days by CCK8 assay; type: functional, cell-based; settings: time 6.0 day
MDA-MB-231 [18] = experiment: Induction of apoptosis in human MDA-MB-231 cells assessed as viable cells at 5 uM incubated for 48 hrs by Annexin V-FITC/PI staining based flow cytometric analysis (reference value: 97.63%); type: functional; settings: read-out: Activity
MDA-MB-231 [19] = experiment: Induction of apoptosis in human MDA-MB-231 cells assessed as necrotic cells at 1 uM incubated for 48 hrs by Annexin V-FITC/PI staining based flow cytometric analysis (reference value: 0.63%); type: functional
95-D = experiment: Antiproliferative activity against human 95-D cells assessed as inhibition of cell proliferation incubated for 6 days by CCK8 assay; type: functional, cell-based; settings: time 6.0 day
BXPC-3 [20] = experiment: Antitumor activity against human BXPC-3 cells xenografted in Balb/c nude mouse assessed as reduction in tumor growth at 60 mg/kg, ip administered daily for 30 days; type: functional, organism-based; settings: time 30.0 day
[21] = Tmax in ICR mouse at 60 mg/kg, ip measured upto 24 hrs by LC-MS/MS analysis; type: ADME, organism-based; settings: in vivo
MDA-MB-231 [22] = experiment: Induction of apoptosis in human MDA-MB-231 cells assessed as late apoptotic cells at 2.5 uM incubated for 48 hrs by Annexin V-FITC/PI staining based flow cytometric analysis (reference value: 1.06%); type: functional
[23] = MRT(0 to t) in ICR mouse at 60 mg/kg, ip measured upto 24 hrs by LC-MS/MS analysis; type: ADME, organism-based; settings: in vivo
[24] = Toxicity in Balb/c nude mouse xenografted with human BXPC-3 cells assessed as effect on body weight at 30 to 60 mg/kg, ip administered daily for 30 days; type: organism-based; settings: in vivo, 720 h, dose 30-60 mg/kg, time 30 day
BXPC-3 [25] = experiment: Induction of apoptosis in human BXPC-3 cells assessed as late apoptotic cells at 5 uM incubated for 48 hrs by Annexin V-FITC/PI staining based flow cytometric analysis (reference value: 4.38 %); type: functional

half-life [4]: 13.6 h
inhibition [5]: Active
IC50 [14]: 2580 nM
fraction unbound at 5 h, 2 µM [15]: 0.009
Tmax [21]: 4.98 min
MRT last at 24 h [23]: 2.55 h
SMILES: CCC(C)n1ccc2c(C(=O)NCc3c(C)cc(C)[nH]c3=O)cc(-c3cn(C)c(=O)c4[nH]ccc34)cc21 (configuration not stated)
Activity (MDA-MB-231 [1]): 13.19%
Activity (MDA-MB-231 [2]): 8.53%
viability at 1 µM (MDA-MB-231 [3]): 94.8%
Activity (BXPC-3 [6]): 2.94%
Activity (MDA-MB-231 [7]): Active
Activity (BXPC-3 [8]): 7.61%
Activity (BXPC-3 [9]): 16.95%
viability at 1 µM (BXPC-3 [10]): 82.6%
Activity (MDA-MB-231 [11]): 1.36%
viability at 2.5 µM (BXPC-3 [12]): 71%
inhibition (MDA-MB-231 [13]): Active
Activity (PLC-PRF-5): Active
Activity (BXPC-3 [16]): 10.73%
Activity (BXPC-3 [17]): Active
viability at 5 µM (MDA-MB-231 [18]): 81.1%
Activity (MDA-MB-231 [19]): 0.87%
Activity (95-D): Active
Activity (BXPC-3 [20]): Active
Activity (MDA-MB-231 [22]): 2.29%
Activity [24]: Non-Toxic
Activity (BXPC-3 [25]): 23.83%
